# Earlier results as cited in patent publication US8784850B2, “Highly biocompatible dual thermogelling chitosan/glucosamine salt composition” (Oligo Médic Inc., priority 2010, dated 2014).
# What was measured:
# [1] = tested on: rabbits; details: ingestion of 300 to 2149 mg/kg of body weight
# [2] = tested on: patients with osteoarthritis pain; details: oral administration, more than 3000 patients
# [3] = tested on: mice; details: mouse, in vivo, po
# [4] = tested on: rabbits; details: rabbit, in vivo, po
# [5] = tested on: outpatients with gonarthrosis
# [6] = tested on: dogs; details: ingestion of 300 to 2149 mg/kg of body weight
# [7] = tested on: rats; details: rat, in vivo, po
# [8] = tested on: rats; details: ingestion of 300 to 2149 mg/kg of body weight
# [9] = tested on: human blood glucose metabolism; details: human studies
# [10] = intra-articular, after treatment
# [11] = intra-articular, versus placebo
smiles,measurement,setting,value
N[C@H]1C(O)O[C@H](CO)[C@@H](O)[C@@H]1O (stereo partly drawn) [glucosamine],blood glucose levels,[1],no effect on blood glucose levels
same,"adverse effects on blood, urine or fecal parameters",[2],no adverse effects
same,effectiveness in treating osteoarthritis pain,[2],moderately to highly effective
same,LD50,[3],> 8000 mg/kg
same,LD50,[4],> 8000 mg/kg
same,local or general intolerance symptoms,[5]; during and after treatment,no local or general intolerance symptoms
same,angle of joint flexion,[5]; [10],substantially increased
same,knee swelling,[5]; [10],did not decrease significantly
same,active mobility,[5]; [11],a more favourable trend after glucosamine administration
same,pain-free patients,[5]; [11],significantly more pain-free patients
same,pain,"[5]; one intra-articular injection per week for five weeks, versus placebo",reduced pain to a significantly greater extent than did placebo
same,blood glucose levels,[6],no effect on blood glucose levels
same,LD50,[7],exceed 5000 mg/kg
same,blood glucose levels,[8],no effect on blood glucose levels
same,"plasma levels of glucose or insulin, insulin sensitivity or glucose oxidation",[9],did not affect
